Data reported in PubChem BioAssay (NCI).
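Where inhibition never reached the appropriate level, the endpoint shown equals the highest concentration tested. Otherwise, values were interpolated linearly from a five-concentration, 48-hour dose response in 96-well plates. TGI: total growth inhibition.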

Assays:
Test in all cases: NCI anticancer screen, dose series, 48 h
[1] = test system: RPMI-8226 leukemia
[2] = test system: ACHN renal
[3] = test system: MDA-N
[4] = test system: CCRF-CEM leukemia
[5] = test system: NCI-H522 lung
[6] = test system: A498 renal
[7] = test system: SW-620 colon
[8] = test system: SNB-75 CNS
[9] = test system: SF-268 CNS
[10] = test system: MDA-MB-435
[11] = test system: M14 melanoma
[12] = test system: KM12 colon
[13] = test system: U251 CNS
[14] = test system: HCT-15 colon
[15] = test system: SF-295 CNS
[16] = test system: HT29 colon
[17] = test system: RXF 393 renal
[18] = test system: TK-10 renal
[19] = test system: SN12C renal
[20] = test system: OVCAR-4 ovarian
[21] = test system: IGROV1 ovarian
[22] = test system: PC-3 prostate
[23] = test system: A549 NSCLC
[24] = test system: 786-0 renal
[25] = test system: HS 578T breast
[26] = test system: MCF7 breast
[27] = test system: NCI-H460 lung
[28] = test system: SK-MEL-28 melanoma
[29] = test system: OVCAR-5 ovarian
[30] = test system: DU-145 prostate
[31] = test system: HL-60(TB) leukemia
[32] = test system: EKVX NSCLC
[33] = test system: NCI-H23 lung
[34] = test system: OVCAR-3 ovarian
[35] = test system: MDA-MB-231 breast
[36] = test system: SK-OV-3 ovarian
[37] = test system: HOP-92 NSCLC
[38] = test system: LOX IMVI melanoma
[39] = test system: HCT-116 colon
[40] = test system: HCC-2998 colon
[41] = test system: SNB-19 CNS
[42] = test system: UACC-257 melanoma
[43] = test system: SR leukemia
[44] = test system: MOLT-4 leukemia
[45] = test system: MALME-3M melanoma
[46] = test system: UACC-62 melanoma
[47] = test system: K-562 leukemia
[48] = test system: T-47D breast
[49] = test system: HOP-62 NSCLC
[50] = test system: NCI-H226 lung
[51] = test system: BT-549 breast
[52] = test system: COLO 205 colon
[53] = test system: OVCAR-8 ovarian
[54] = test system: SK-MEL-5 melanoma
[55] = test system: NCI/ADR-RES ovarian
[56] = test system: UO-31 renal
[57] = test system: SK-MEL-2 melanoma
[58] = test system: SF-539 CNS
[59] = test system: CAKI-1 renal

NC(=O)NN=C1Cc2ccccc2C1
TGI [1]: > 100 µM | TGI [2]: > 100 µM | TGI [3]: > 100 µM | TGI [4]: > 100 µM | TGI [5]: > 100 µM | TGI [6]: > 100 µM | TGI [7]: > 100 µM | TGI [8]: > 100 µM | TGI [9]: > 100 µM | TGI [10]: > 100 µM | TGI [11]: > 100 µM | TGI [12]: > 100 µM | TGI [13]: > 100 µM | TGI [14]: > 100 µM | TGI [15]: > 100 µM | TGI [16]: > 100 µM | TGI [17]: > 100 µM | TGI [18]: > 100 µM | TGI [19]: > 100 µM | TGI [20]: > 100 µM | TGI [21]: > 100 µM | TGI [22]: > 100 µM | TGI [23]: > 100 µM | TGI [24]: > 100 µM | TGI [25]: > 100 µM | TGI [26]: > 100 µM | TGI [27]: > 100 µM | TGI [28]: > 100 µM | TGI [29]: > 100 µM | TGI [30]: > 100 µM | TGI [31]: > 100 µM | TGI [32]: > 100 µM | TGI [33]: > 100 µM | TGI [34]: > 100 µM | TGI [35]: > 100 µM | TGI [36]: > 100 µM | TGI [37]: > 100 µM | TGI [38]: > 100 µM | TGI [39]: > 100 µM | TGI [40]: > 100 µM | TGI [41]: > 100 µM | TGI [42]: > 100 µM | TGI [43]: > 100 µM | TGI [44]: > 100 µM | TGI [45]: > 100 µM | TGI [46]: > 100 µM | TGI [47]: > 100 µM | TGI [48]: > 100 µM | TGI [49]: > 100 µM | TGI [50]: > 100 µM | TGI [51]: > 100 µM | TGI [52]: > 100 µM | TGI [53]: > 100 µM | TGI [54]: > 100 µM | TGI [55]: > 100 µM | TGI [56]: > 100 µM | TGI [57]: > 100 µM | TGI [58]: > 100 µM | TGI [59]: > 100 µM

O=C(Nc1nn(C(=O)c2cccnc2)c(=O)s1)c1ccc(Cl)cc1
TGI [2]: > 100 µM | TGI [3]: > 100 µM | TGI [4]: > 100 µM | TGI [5]: 51.7 µM | TGI [6]: > 100 µM | TGI [7]: > 100 µM | TGI [8]: 82.2 µM | TGI [9]: 40.4 µM | TGI [10]: > 100 µM | TGI [11]: > 100 µM | TGI [12]: > 100 µM | TGI [13]: > 100 µM | TGI [14]: > 100 µM | TGI [15]: > 100 µM | TGI [16]: > 100 µM | TGI [17]: 93.8 µM | TGI [18]: > 100 µM | TGI [19]: > 100 µM | TGI [20]: > 100 µM | TGI [22]: > 100 µM | TGI [23]: > 100 µM | TGI [24]: > 100 µM | TGI [25]: 60.3 µM | TGI [26]: > 100 µM | TGI [27]: > 100 µM | TGI [28]: > 100 µM | TGI [29]: > 100 µM | TGI [30]: > 100 µM | TGI [31]: > 100 µM | TGI [32]: > 100 µM | TGI [33]: > 100 µM | TGI [34]: > 100 µM | TGI [35]: > 100 µM | TGI [36]: > 100 µM | TGI [37]: > 100 µM | TGI [38]: > 100 µM | TGI [39]: > 100 µM | TGI [40]: > 100 µM | TGI [41]: > 100 µM | TGI [42]: > 100 µM | TGI [43]: > 100 µM | TGI [44]: > 100 µM | TGI [45]: 91.5 µM | TGI [46]: > 100 µM | TGI [47]: > 100 µM | TGI [48]: > 100 µM | TGI [49]: > 100 µM | TGI [50]: 77.2 µM | TGI [51]: > 100 µM | TGI [52]: > 100 µM | TGI [53]: > 100 µM | TGI [54]: > 100 µM | TGI [55]: > 100 µM | TGI [56]: 78.9 µM | TGI [57]: > 100 µM | TGI [58]: 95.4 µM | TGI [59]: > 100 µM
